In US9681664B2, “Macrocyclic picolinamides as fungicides” (Dow Agrosciences LLC, priority 2012, dated 2017):
Like-named read-outs stand apart in the source and are kept apart here.

What was measured:
[1] = system: Puccinia triticina; Synonym: Puccinia recondite f. sp. tritici; test: Wheat brown rust (PUCCRT) disease control on wheat seedlings; format: in vivo; conditions: Puccinia triticina, High volume application, 100 ppm
Description: Technical grades of materials were dissolved in acetone, which were then mixed with nine volumes of water containing 110 ppm Triton X-100. The fungicide solutions were applied onto wheat seedlings using an automated booth sprayer to run-off. All sprayed plants were allowed to air dry prior to further handling. All fungicides were evaluated using the aforementioned method for their activity vs. all target diseases. Wheat leaf blotch and brown rust activity were also evaluated using track spray applications, in which case the fungicides were formulated as EC formulations, containing 0.1% Trycol 5941 in the spray solutions. Wheat plants (variety Yuma) were grown from seed in a greenhouse in 50% mineral soil/50% soil-less Metro mix until the first leaf was fully emerged, with 7-10 seedlings per pot. These plants were inoculated with an aqueous spore suspension of Puccinia triticina either prior to or after fungicide treatments. After inoculation the plants were kept in a dark dew room at 22° C. with 100% relative humidity overnight to permit spores to germinate and infect the leaf. The plants were then transferred to a greenhouse set at 24° C. for disease to develop. Fungicide formulation, application and disease assessment followed the procedures as described in the Example A.

[2] = system: Mycosphaerella graminicola; Anamorph: Septoria tritici; test: Leaf blotch of wheat (SEPTTR) disease control on wheat seedlings; format: in vivo; conditions: Zymoseptoria tritici, High volume application, 100 ppm
Description: Technical grades of materials were dissolved in acetone, which were then mixed with nine volumes of water containing 110 ppm Triton X-100. The fungicide solutions were applied onto wheat seedlings using an automated booth sprayer to run-off. All sprayed plants were allowed to air dry prior to further handling. All fungicides were evaluated using the aforementioned method for their activity vs. all target diseases. Wheat leaf blotch and brown rust activity were also evaluated using track spray applications, in which case the fungicides were formulated as EC formulations, containing 0.1% Trycol 5941 in the spray solutions. Wheat plants (variety Yuma) were grown from seed in a greenhouse in 50% mineral soil/50% soil-less Metro mix until the first leaf was fully emerged, with 7-10 seedlings per pot. These plants were inoculated with an aqueous spore suspension of Septoria tritici either prior to or after fungicide treatments. After inoculation the plants were kept in 100% relative humidity (one day in a dark dew chamber followed by two to three days in a lighted dew chamber at 20° C.) to permit spores to germinate and infect the leaf. The plants were then transferred to a greenhouse set at 20° C. for disease to develop. When disease symptoms were fully expressed on the 1st leaves of untreated plants, infection levels were assessed on a scale of 0 to 100 percent disease severity. Percent disease control was calculated using the ratio of disease severity on treated plants relative to untreated plants.

[3] = 24 h, 1 Day Protectant, read-out: PUCCRT 1DP disease control
[4] = 72 h, 3 Day Curative, read-out: PUCCRT 3DC disease control
[5] = 24 h, 1 Day Protectant, read-out: SEPTTR 1DP disease control
[6] = 72 h, 3 Day Curative, read-out: SEPTTR 3DC disease control

SMILES | pest or weed control at 100 ppm [1, 3] [%] | pest or weed control at 100 ppm [1, 4] [%] | pest or weed control at 100 ppm [2, 5] [%] | pest or weed control at 100 ppm [2, 6] [%]
COc1ccnc(C(=O)N[C@H]2CCC[C@H](OCC(C)C)[C@@H](OC(=O)C3CC3)[C@H](C)OC2=O)c1OCOC(=O)C(C)C [F52] | 80 to 100 | 80 to 100 | 80 to 100 | 80 to 100
COc1ccnc(C(=O)N[C@H]2CCC[C@H](OCC(C)C)[C@@H](OC/C=C/C(F)(F)F)[C@H](C)OC2=O)c1O [F53] | 80 to 100 | 80 to 100 | 80 to 100 | 0 to 80
COc1ccc(O[C@H]2CCC[C@H](NC(=O)c3nccc(OC)c3O)C(=O)O[C@@H](C)[C@@H]2Oc2ccc(F)cc2)cc1 [F54] | 80 to 100 | 80 to 100 | 80 to 100 | 0 to 80
COc1ccnc(C(=O)N[C@H]2CCC[C@H](Oc3ccc(F)cc3)[C@@H](OCC(C)C)[C@H](C)OC2=O)c1O [F56] | 80 to 100 | 80 to 100 | 80 to 100 | 80 to 100
COc1ccc(O[C@H]2[C@H](C)OC(=O)[C@@H](NC(=O)c3nccc(OC)c3O)CCC[C@@H]2OCC(C)C)cc1 [F57] | 80 to 100 | 80 to 100 | 80 to 100 | 80 to 100
COc1ccnc(C(=O)N[C@H]2CCC[C@H](OCC(C)C)[C@@H](OC/C=C/C(F)(F)F)[C@H](C)OC2=O)c1OC(C)=O [F58] | 80 to 100 | 80 to 100 | 80 to 100 | 80 to 100
COc1ccc(O[C@H]2CCC[C@H](NC(=O)c3nccc(OC)c3OCOC(C)=O)C(=O)O[C@@H](C)[C@@H]2Oc2ccc(F)cc2)cc1 [F60] | 80 to 100 | 80 to 100 | 80 to 100 | 80 to 100
COc1ccnc(C(=O)N[C@H]2CCC[C@H](OCC(C)C)[C@@H](Oc3ccc(F)cc3)[C@H](C)OC2=O)c1OCOC(C)=O [F61] | 80 to 100 | 80 to 100 | 80 to 100 | 80 to 100
COc1ccnc(C(=O)N[C@H]2CCC[C@H](OCC(C)C)[C@@H](Oc3ccc(F)cc3)[C@H](C)OC2=O)c1OCOC(=O)C(C)C [F62] | 80 to 100 | 80 to 100 | 80 to 100 | 80 to 100
COc1ccc(O[C@H]2[C@H](C)OC(=O)[C@@H](NC(=O)c3nccc(OC)c3O)CCC[C@@H]2Oc2ccc(OC)cc2)cc1 [F64] | 0 to 80 | < 0 | 0 to 80 | 0 to 80
COc1ccc(O[C@H]2CCC[C@H](NC(=O)c3nccc(OC)c3O)C(=O)O[C@@H](C)[C@@H]2OCC(C)C)cc1 [F65] | 80 to 100 | 80 to 100 | 80 to 100 | 0 to 80
COc1ccc(O[C@H]2[C@H](C)OC(=O)[C@@H](NC(=O)c3nccc(OC)c3OCOC(C)=O)CCC[C@@H]2Oc2ccc(OC)cc2)cc1 [F66] | 80 to 100 | 80 to 100 | 80 to 100 | 0 to 80
COc1ccc(O[C@H]2[C@H](C)OC(=O)[C@@H](NC(=O)c3nccc(OC)c3OCOC(=O)C(C)C)CCC[C@@H]2Oc2ccc(OC)cc2)cc1 [F67] | 80 to 100 | 80 to 100 | 80 to 100 | 0 to 80
COc1ccc(O[C@H]2CCC[C@H](NC(=O)c3nccc(OC)c3OCOC(=O)C(C)C)C(=O)O[C@@H](C)[C@@H]2OCC(C)C)cc1 [F69] | 80 to 100 | 80 to 100 | 80 to 100 | 80 to 100
CCCCCO[C@H]1[C@H](C)OC(=O)[C@@H](NC(=O)c2nccc(CC)c2O)CCC[C@@H]1OCC(C)C [F70] | 0 to 80 | 0 to 80 | 0 to 80 | 0 to 80
